Data on 1 compound can be found in BindingDB's records for doi:10.1016/0960-894X(95)00055-X (1995).

The test has as its target Trehalase (Sus scrofa). Put plainly: Evaluated for the inhibition of trehalase from porcine kidneys.

By Ki is commonly meant a measure of affinity in units of concentration, obtained from inhibition or displacement. The compound `OCC1=CC(NC2COC(CO)C(O)C2O)C(O)C(O)C1O` (stereo unspecified) [6-(4,5-Dihydroxy-6-hydroxymethyl-tetrahydro-pyran-3-ylamino)-4-hydroxymethyl-cyclohex-4-ene-1,2,3-triol] showed a Ki of 0.18 µM.
